{"source": "patent US20250100969A1", "about": "“COMPOUND, RUBBER BLEND CONTAINING THE COMPOUND, VEHICLE TIRE COMPRISING THE RUBBER BLEND IN AT LEAST ONE COMPONENT, PROCESS FOR PRODUCING THE COMPOUND, AND USE OF THE COMPOUND AS AN AGE RESISTOR AND/OR ANTIOXIDANT” (Continental Reifen Deutschland GmbH, priority 2021, published 2025)", "assay": "solubility in rubber mixtures", "type": "physicochemical", "settings": "in particular for vehicle tires and other technical rubber articles", "data": [{"smiles": "CC(C)CC(C)Nc1ccc2[nH]c3ccccc3c2c1", "note": "(stereo not shown) [compound according to the invention, N-(1,3-dimethylbutyl)-9H-carbazol-3-amine]", "values": [{"measurement": "solubility in rubber mixtures", "result": "very good"}]}]}
